The record followed here is patent US5962456A, “N-acylpiperazine derivative, anti-ulcer drug, and antibacterial drug” (Shiseido Co., Ltd., priority 1996, dated 1999).

In data set [1] the test system is isolated gastric fundic gland. The data set can be described thus: CAP: Acid Secretion Inhibition Test In Vitro ([14C]-aminopyrine uptake). It counts as cell-based, rabbit (male Japanese White). The following applies: Oryctolagus cuniculus; final concentration 10^-5 M; histamine 10^-5 M; rabbit gastric fundic glands; read-out: CAP acid secretion inhibitory rate. Here is the method: CAP: Acid Secretion Inhibition Test In Vitro
The acid secretion inhibitory activity in a cell level is studied. It can also be used for studying the mechanism of the effect. […]
ii-a) Preparation of Isolated Gastric Fundus Gland Suspension
First, an isolated gastric fundic gland sample was prepared. Namely, a male Japanese White rabbit (2.5 to 3 kg) was anesthetized to death with Nembutal™ and then the abdomen was incised. Immediately thereafter, the stomach was removed and, after its pyloric and cardiac antrum were severed, incised along its greater curvature into two sheets. The gastric contents adhering to the mucosal surface was washed out with ice-cooled PBS (-) and then carefully washed therein. The gastric wall was spread on a cork board with its mucosal surface facing up and the feed and mucus thereon were completely removed with sterile gauze. The mucosa was separated therefrom by a spatula and then collected in ice-cooled PBS (-). After being washed twice with PBS (-), the mucosa was minced into 2-3 mm^3 pieces by scissors. These pieces were further washed twice with a nutrient solution. […] Into 70 ml of the nutrient solution containing 1 mg/ml of collagenase, minced mucosal pieces were dispersed and intensely stirred in a conical flask with a stirrer at 37° C. for 40 to 60 minutes. During this period, 100% O2 was sprayed on the nutrient solution surface and the pH was appropriately measured such that it was immediately adjusted to pH 7.4, when the value was therebelow, with a base. The nutrient solution was added to the reaction solution so as to attain the total amount of about 200 ml. After being filtered through a mesh, the suspension was divisionally introduced into 50 ml centrifuge tubes and left for 15 minutes such that gastric fundic gland was deposited. The supernatant was repeatedly removed by an aspirator, dispersed in the nutrient solution, and then left such that the gastric fundic gland was washed three times. At this time, without using a pipette, the suspension was alternately introduced into two centrifuge tubes so as to effect dispersion. The number of cells was counted under microscope and adjusted to 1.6×10^6 cells/ml. […]
ii-b) [^14 C]-aminopyrine Uptake Test
Then, [^14 C]-aminopyrine uptake test was performed. After an Eppendorf tube was weighed, 10 μl (final concentration: 10^-5 M) of histamine dissolved in the above-mentioned nutrient solution, 10 μl (final concentration: 10^-5 M) of the test compound dissolved in DMSO, and 10 μl (final concentration: 0.05 μCi/ml) of [^14 C]-aminopyrine diluted with the nutrient solution were introduced therein and then 970 μl of the isolated gastric fundic gland suspension prepared above was added thereto. […] After being centrifuged for 30 minutes, 200 μl of its supernatant was collected into a mini-vial, while the rest was removed by an aspirator. The gland pellet was completely dried as the tube with its lid being opened was kept for one night in a drying oven at 80° C. and then the lid was closed and the weight was determined at room temperature. Then 100 μl of 1N KOH was added thereto and the tube with its lid being closed was treated at 60° C. for 1 to 2 hours so as to dissolve the pellet. Then, the contents thereof were transferred to a mini-vial. Into the mini-vial containing the supernatant or gland pellet, 4 ml of Atomlite™ was added and then the radioactivity was measured by a liquid scintillation counter. Here, after the radioactivity of the gland pellet was corrected by using a sample in which 20 mM of NaSCN was added so as to cancel the hydrogen ion concentration gradient, the integration ratio of aminopyrine specifically trapped by the gland pellet was calculated. This experiment was performed in duplicate. […]
ii-c) Calculation of the Accumulation Rate of Aminopyrine
Here, its principle will be briefly explained. In the isolated gastric fundic gland, acid is accumulated in a space between its secretory tubule and intraglandular cavity.

Data set [2] is described as follows: MTT: Cell Damaging and Protecting Effect Test. Type of data set: cell-based, rabbit (male Japanese White). The following applies: rabbit, gastric corpus mucosa cells, final concentration 10^-4 M, smaller value is better, read-out: MTT cell damaging rate. From the text: MTT: Cell Damaging and Protecting Effect Test
It is confirmed that there is no toxicity in cell level. Those having a toxicity in cell level are inappropriate as an anti-ulcer drug.
A male Japanese White rabbit (2.5 to 3 kg) was anesthetized to death by Nembutal™ and, immediately thereafter, its stomach was removed. The greater curvature of the stomach was incised so as to remove the stomach contents therefrom. After the mucosal surface was washed with HBSS (Hanks' Balanced Salt Solution), the stomach in ice-cooled HBSS was transferred to a laboratory. Then, after the pyloric antrum was removed, the gastric corpus mucosa was separated by a spatula and then minced into 2 to 3 mm^3 pieces in BME (Basal Medium Eagle). Thereafter, these pieces were shaken at 120 to 130 cycles/minute for 15 minutes at 37° C. in BME 60 ml containing 280 U/ml of dispase and 30 to 50 U/ml of collagenase. Here, the concentration of collagenase was appropriately changed for each lot in view of the state of cells. The pieces were washed twice with EBSS (Earle's Balanced Salt Solution) containing 1 mM of EDTA and then shaken in MEM (Minimum Essential Medium) containing 1 mM of EDTA at 37° C. for 5 minutes. Subsequently, they were shaken in the dispase and collagenase having the same concentrations as those mentioned above for 15 minutes so as to remove the supernatant and then further shaken at 37° C. for 50 to 60 minutes at 120 to 130 cycles/minute. Then, after being washed twice with HBSS, Ham F12 containing 2% of Ultrocer G™ was used to attain the concentration of 1×10^6 cells/ml. Thus formed suspension was dispensed in each well of a 96-well plate by 200 μl. The plate was incubated in the atmosphere composed of 5% CO2 and 95% air at 37° C. for three days so as to attain a confluent state and then subjected to MTT assay.
The sample compound was dissolved in DMSO so as to attain a concentration of 10^-2 M and then diluted with HBSS containing 2% of Ultrocer G™ so as to attain a final concentration of 10^-4 M. To each group, which 8 wells were used for, 10 μl of MTT reagent was added immediately after 100 μl of the medium in each well was exchanged for same volume of the resulting solution of the sample compound. After being incubated in an atmosphere composed of 5% CO2 and 95% air at 37° C. for 4 hours, thus formed solution was centrifuged and then its supernatant was discarded. Subsequently, 100 μl of 100% ethanol was added to the residue so as to dissolve MTT formazan. Then, the absorbance (OD: 570 to 630) was measured by a microplate reader. This method utilizes a phenomenon in which MTT is changed to MTT formazan only by mitochondria of living cells so as to change color.
The cell damaging or cell protecting effect of the sample compound at the final concentration of 10^-4 M was expressed as cell damaging rate (%) as follows:
cell damaging rate (%)=(1-(absorbance in sample group/absorbance in control group))×100
Accordingly, the smaller rate value is better in the cell damage.

Data set [3] has as its system mice. The following applies: mouse, in vivo.
Experimental: AT: Single Dose Toxicity Pretest
Male Slc:ICR mice (5-week-old) were used. Each group has 3 to 5 mice and each mouse was fasted, but allowed free access to water, for 4 to 5 hours from 9 a.m. in the test day. Then, 2,000 mg/10 ml/kg of the sample compound dissolved or suspended in an aqueous solution of 0.5% sodium carboxymethyl cellulose was orally administered thereto. To a control, only the vehicle was administered. […] The body weight was measured before and after the fasting as well as at the same time everyday. The dead animals were immediately subjected to autopsy and their organs were observed microscopically. Also, the living animals were sacrificed with ether or carbon dioxide one week after the administration and then their organs were observed microscopically.
The toxicity at the single dose of 2,000 mg/kg of the sample compound was expressed as being classified into 5 levels.
5: Mortality rate is 0%; no toxicity is found at all both in behavior and organs.
4: Mortality rate is 0%; while no toxicity is found in organs, slight toxicity is observed in behavior and body weight increase.
3: While there is a dead animal (though not all the animals are dead), no toxicity is found in organs.
2: Regardless of whether there is a dead animal or not, toxicity is found in organs.
1: All the animals are dead.

As for `CC(C)Cc1cc(C(=O)N2CCN(c3ccccn3)CC2)ccc1OCc1ccc(F)cc1` [Example 10, 1-[4-(4-fluorobenzyloxy)-3-isobutyl]benzoyl-4-(2-pyridyl) piperazine], the inhibition at 10 µM in data set [1] turned out to be 96%. For the same molecule, the cytotoxicity at 4 h, 100 µM in data set [2] was -34%. The “AT single dose toxicity level” value in data set [3] is reported as 5.
